Experimental data reported in PubChem BioAssay AID1996.
Converted amounts (≈) assume the structure as drawn.

conditions: buffer; pH 7.4; 200.0 µM

| Structure (SMILES) | solubility kinetic [µg/mL] |
| --- | --- |
| Cc1c(C)c(C)c(CN2CCCC2)c(C)c1C | 29.4 (≈ 127 µM) |
| CNC(=O)c1ccc(NC(=O)CC23CC4CC(CC(C4)C2)C3)cc1 | 13.8 (≈ 42.3 µM) |
| COc1ccc(NC2CCCN(C(=O)c3ccncc3)C2)cc1 (stereo not drawn) | > 46.7 |
| CN1CCN(C(=O)c2ccc(Oc3ccc([N+](=O)[O-])cc3)cc2)CC1 | > 51.2 |
| Cc1ccc(C(=O)Nc2cccc3ccccc23)cc1 | 0.8 (≈ 3.06 µM) |
| COc1ccccc1-c1noc(CCCC(=O)NC2CCCC2)n1 | 44.4 (≈ 135 µM) |
| O=C(NCCc1ccc(F)cc1)c1ccc([N+](=O)[O-])cc1 | 4.6 (≈ 16 µM) |
| O=C(NCc1ccccc1)c1ccccc1-c1nc2ccccc2[nH]1 | 2.2 (≈ 6.72 µM) |
| O=c1c2ccccc2[nH]c(=S)n1-c1cccnc1 | 7.6 (≈ 29.8 µM) |
| COc1cccc(N2CCN(C(=O)c3cc4ccc(OC)cc4[nH]3)CC2)c1 | 1.6 (≈ 4.38 µM) |
| O=C(CNC1CCCCC1)Nc1cccc([N+](=O)[O-])c1 | 31.4 (≈ 113 µM) |
| CCN(CC)CCCNc1ncnc2scc(-c3ccc(F)cc3)c12 | > 53.8 |
| Cc1ccc2sc(NC(=O)C3CC3)nc2c1C | 1.3 (≈ 5.28 µM) |
| C=CCOC(=O)c1sc(NC(=O)c2ccc(OC)cc2)nc1C | < 0.4 |
| Cc1[nH]c(=S)c(C#N)c(-c2ccccc2)c1C(=O)Nc1ccccc1 | > 51.8 |
| CCc1ccc(C(=O)CN2C(=O)NC3(CCc4ccccc43)C2=O)cc1 (stereo not drawn) | 6.5 (≈ 18.7 µM) |
| Cc1cc(=O)[nH]c(SCC(=O)N2CC3(C)CC2CC(C)(C)C3)n1 (stereo not drawn) | > 50.3 |
| COc1ccc(CNCCc2ccc(Cl)cc2Cl)cc1 | 2.1 (≈ 6.77 µM) |
| O=C(CCl)Nc1nccs1 | > 26.5 |
| Cc1ccc(C(=O)CNc2ccc(C)cc2C)cc1 | 2.8 (≈ 11.1 µM) |
| COc1ccc(S(=O)(=O)N2CCC(C)CC2)cc1OC | 44.8 (≈ 150 µM) |
| Cc1nc(NC(=O)c2ccncc2)sc1C(=O)N(C)C | > 43.6 |
| COc1ccc(NC(C)=O)cc1CP(=O)(c1ccccc1)c1ccccc1 | > 56.9 |
| CCCn1cccc(C(=O)Nc2ccc(OC)cc2)c1=O | > 42.9 |

| Structure (SMILES) | solubility kinetic [µg/mL] |
| --- | --- |
| CCOC(=O)C1(Cc2ccccc2C)CCCN(C(=O)CCC(=O)OC)C1 (stereo not drawn) | 53 (≈ 141 µM) |
| CCOc1ccc(N2CC(C(=O)N3CCCC3)CC2=O)cc1 (stereo not drawn) | > 45.4 |
| Nc1cccc(/C=C/C(=O)O)c1 | > 24.5 |
| CCOC(=O)c1ccc(NC(=S)N2CCCC2)cc1 | 39.6 (≈ 142 µM) |
| Cc1cc(NC(=O)c2ccccc2)ccc1NC(=O)Cc1ccccc1 | 0.8 (≈ 2.32 µM) |
| Cc1ccc2nc(SCC(=O)c3ccccc3)nc(=O)n2c1 | 33 (≈ 106 µM) |
| S=C(NCc1ccco1)Nc1ccccc1Cl | > 40 |
| COc1cc(C(=O)N2c3ccccc3CCC2C)cc(OC)c1OC (stereo not drawn) | 32.8 (≈ 96.1 µM) |
| CN(C)c1cc(-c2ccccc2)nc(-c2ccccc2)n1 | < 0.2 |
| CC(C)c1ccc(NC(=S)NNC(=O)c2cccnc2)cc1 | > 47.2 |
| C#CCN1CCN(c2ccc(F)cc2)CC1 | 30 (≈ 137 µM) |
| COCCNC(=O)c1ccc2c(c1)C(=O)c1ccccc1-2 | > 42.2 |
| O=C(NCCCO)/C(=C\c1ccco1)NC(=O)c1ccco1 | > 45.6 |
| CC(OC(=O)c1ccc(O)cc1)C(=O)Nc1ccc(Oc2ccccc2)cc1 (stereo not drawn) | 5 (≈ 13.2 µM) |
| Cc1cccc(C(=O)Nc2ccc3ccccc3c2)c1 | < 0.6 |
| COc1ccc(CCN2C(=S)N(c3ccccc3)C(=O)C2CC(=O)O)cc1OC (stereo not drawn) | > 62.2 |
| Cc1cc(C)nc(SCC(=O)c2ccc(F)c(C)c2)n1 | 14.7 (≈ 50.6 µM) |
| Cc1cccc(Oc2nc(-c3ccccn3)nc3ccccc23)c1 | 27.6 (≈ 88.1 µM) |
| CC(C)(C)C(=O)NC1(C(F)(F)F)NC(=O)N(c2ccccc2F)C1=O (stereo not drawn) | > 54.2 |
| O=C(c1cc(Cl)ccc1O)N1CCN(S(=O)(=O)Cc2ccccc2)CC1 | > 59.2 |
| COc1ccc(C)cc1NC(=O)C(=O)N1CCCC1 | 39.1 (≈ 149 µM) |
| COC(CNS(=O)(=O)c1cccc2nonc12)OC | > 43.1 |
| Cc1ccsc1C1C(C#N)=C(N)N(N(C)C)C2=C1C(=O)CCC2 (stereo not drawn) | > 49.3 |
| CCOc1ccc(Nc2nc(N)c([N+](=O)[O-])c(NCc3ccccc3)n2)cc1 | < 0.1 |
